Laboratory results published in patent publication US20110053773A1, “METHODS OF IMPROVING NUTRITIONAL VALUE OF PLANTS” (UNIVERSITY OF TENNESSEE RESEARCH FOUNDATION, priority 2009, published 2011).

Legend:
Assay type in all cases: in vivo
kale 'Red Russian' = assay: Content analysis of kale: protein, amino acids, fiber, fatty acids, minerals (Example 4, Tables 12-14); settings: 28 DA-A
Procedure: (§1) Greenhouse and laboratory studies were conducted to ascertain the tolerance and nutritional quality differences following postemergence applications of the insecticide chlorpyrifos, the fungicide chlorothalonil, the PGRs mepiquat-chloride and paclobutrazol, and the safeners napthalic anhydride and isoxadifen-ethyl on kale ‘Red Russian’ and basil ‘Genovese’. Visual injury was rated based on general phytotoxicity, chlorosis, and visual stunting and each measurement was based on a percent scale from 0 to 100 where 0 equals no visual response and 100 equals complete plant death. Kale and basil were both harvested approximately 4 weeks after treatments and plants were pooled over replicates for content analysis of crude protein, crude amino acid content, acid detergent fiber, neutral detergent fiber, total fatty acids, and/or key mineral content (including Na, Ca, P, Mg, K, Fe, Mn, Zn, and Cu). In addition, the amounts of key individual amino acids (aspartic acid, threonine, glutamic acid, proline, glycine, cysteine, valine, leucine, isoleucine, methionine, and lysine) and composite classifications of fatty acid (saturated fatty acids, monounsaturated fatty acids, polyunsaturated fatty acids) were also analyzed from these sub-samples for kale (Tables 10-14).

basil 'Genovese' = assay: Content analysis of basil: protein, minerals (Example 4, Tables 10-11); settings: 28 DA-A
In short: (§2)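 Greenhouse postemergence applications of chlorpyrifos, chlorothalonil, mepiquat-chloride, paclobutrazol, napthalic anhydride or isoxadifen-ethyl. Visual injury (phytotoxicity, chlorosis, stunting) scored 0–100%, 0 = no response, 100 = plant death. Harvest about 4 weeks after treatment; replicates pooled for protein, mineral, amino acid, fiber and fatty acid analysis.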

basil ‘Genovese’ = assay: Yield, fresh weight of basil after insecticide, fungicide, PGRs and safeners (Example 4, Table 10); settings: DA-A, check 31.8
In short: as §2

kale ‘Red Russian’ = assay: Yield, fresh weight of kale after insecticide, fungicide and PGRs (Example 4, Table 12); settings: 28 DA-A, Untreated Check 106.9
Procedure: as §1

[1] = rates g ai/ha: chlropyrifos 1120, chlorothalonil 2630, paclobutrazol 3.23, mepiquat-chloride 12.3, + NIS 0.25 % v/v
[2] = rates g ai/ha: chlropyrifos 3370, chlorothalonil 7900, paclobutrazol 9.7, mepiquat-chloride 37, + NIS 0.25 % v/v
[3] = second-listed rate g ai/ha: chlropyrifos ###, chlorothalonil ###, paclobutrazol 9.7, mepiquat-chloride 37, + NIS 0.3 % v/v
[4] = rates g ai/ha: chlroprifos 3370, chlorothalonil 7900, paclobutrazol 9.7, mepiquat-chloride 37, Isoxadifen 16, Napthalic anhydride 527, + NIS 0.25 % v/v
[5] = rates g ai/ha: chlropyrifos 1120, chlorothalonil 2630, paclobutrazol 3.23, mepiquat-chloride 12.3, Isoxadifen 8, Napthalic anhydride 264, + NIS 0.25 % v/v

CC(C)(C)[C@@H](O)[C@@H](Cc1ccc(Cl)cc1)n1cncn1 (racemic) [paclobutrazol]
Potassium, Percent Increase Over the Untreated Check (on a % dry matter basis) (kale 'Red Russian'; [1]): 3 % check
Sodium, Percent Increase Over the Untreated Check (on a % dry matter basis) (kale 'Red Russian'; [1]): −1 % check
Zinc, Percent Increase Over the Untreated Check (on a % dry matter basis) (kale 'Red Russian'; [1]): 11 % check
ADF, Percent Increase Over the Untreated Check (on a % dry matter basis) (kale 'Red Russian'; [2]): −1 % check
Calcium, Percent Increase Over the Untreated Check (on a % dry matter basis) (kale 'Red Russian'; [2]): 22 % check
Copper, Percent Increase Over the Untreated Check (on a % dry matter basis) (kale 'Red Russian'; [2]): 28 % check
Iron, Percent Increase Over the Untreated Check (on a % dry matter basis) (kale 'Red Russian'; [2]): −5 % check
Magnesium, Percent Increase Over the Untreated Check (on a % dry matter basis) (kale 'Red Russian'; [2]): 11 % check
Manganese, Percent Increase Over the Untreated Check (on a % dry matter basis) (kale 'Red Russian'; [2]): 20 % check
NDF, Percent Increase Over the Untreated Check (on a % dry matter basis) (kale 'Red Russian'; [2]): −8 % check
Phosphorous, Percent Increase Over the Untreated Check (on a % dry matter basis) (kale 'Red Russian'; [2]): 12 % check
Potassium, Percent Increase Over the Untreated Check (on a % dry matter basis) (kale 'Red Russian'; [2]): 15 % check
Sodium, Percent Increase Over the Untreated Check (on a % dry matter basis) (kale 'Red Russian'; [2]): 11 % check
Zinc, Percent Increase Over the Untreated Check (on a % dry matter basis) (kale 'Red Russian'; [2]): 13 % check
Alanine, Percent Increase over the Untreated Check (on a % dry matter basis) (kale 'Red Russian'; [3]): 4 % check
Aspartic acid, Percent Increase over the Untreated Check (on a % dry matter basis) (kale 'Red Russian'; [3]): 12 % check
Cysteine, Percent Increase over the Untreated Check (on a % dry matter basis) (kale 'Red Russian'; [3]): 6 % check
Glutamic acid, Percent Increase over the Untreated Check (on a % dry matter basis) (kale 'Red Russian'; [3]): 16 % check
Glycine, Percent Increase over the Untreated Check (on a % dry matter basis) (kale 'Red Russian'; [3]): 3 % check
Iso-leucine, Percent Increase over the Untreated Check (on a % dry matter basis) (kale 'Red Russian'; [3]): 6 % check
Leucine, Percent Increase over the Untreated Check (on a % dry matter basis) (kale 'Red Russian'; [3]): 5 % check
Lysine, Percent Increase over the Untreated Check (on a % dry matter basis) (kale 'Red Russian'; [3]): 14 % check
Methionine, Percent Increase over the Untreated Check (on a % dry matter basis) (kale 'Red Russian'; [3]): 2 % check
Proline, Percent Increase over the Untreated Check (on a % dry matter basis) (kale 'Red Russian'; [3]): 7 % check
Threonine, Percent Increase over the Untreated Check (on a % dry matter basis) (kale 'Red Russian'; [3]): 4 % check
Total Amino acids, Percent Increase over the Untreated Check (on a % dry matter basis) (kale 'Red Russian'; [3]): 9 % check
Total Protein, Percent Increase over the Untreated Check (on a % dry matter basis) (kale 'Red Russian'; [3]): 13 % check
Valine, Percent Increase over the Untreated Check (on a % dry matter basis) (kale 'Red Russian'; [3]): 6 % check
ADF, Percent Increase Over the Untreated Check (on a % dry matter basis) (basil 'Genovese'; [4]): −12 % check
Calcium, Percent Increase Over the Untreated Check (on a % dry matter basis) (basil 'Genovese'; [4]): −18 % check
Copper, Percent Increase Over the Untreated Check (on a % dry matter basis) (basil 'Genovese'; [4]): −25 % check
Iron, Percent Increase Over the Untreated Check (on a % dry matter basis) (basil 'Genovese'; [4]): 4 % check
Magnesium, Percent Increase Over the Untreated Check (on a % dry matter basis) (basil 'Genovese'; [4]): −9 % check
Manganese, Percent Increase Over the Untreated Check (on a % dry matter basis) (basil 'Genovese'; [4]): −12 % check
NDF, Percent Increase Over the Untreated Check (on a % dry matter basis) (basil 'Genovese'; [4]): −8 % check
Phosphorous, Percent Increase Over the Untreated Check (on a % dry matter basis) (basil 'Genovese'; [4]): 0 % check
Potassium, Percent Increase Over the Untreated Check (on a % dry matter basis) (basil 'Genovese'; [4]): −5 % check
Protein, Percent Increase Over the Untreated Check (on a % dry matter basis) (basil 'Genovese'; [4]): −9 % check
Sodium, Percent Increase Over the Untreated Check (on a % dry matter basis) (basil 'Genovese'; [4]): −17 % check
Soluble protein, Percent Increase Over the Untreated Check (on a % dry matter basis) (basil 'Genovese'; [4]): 12 % check
Zinc, Percent Increase Over the Untreated Check (on a % dry matter basis) (basil 'Genovese'; [4]): −8 % check
ADF, Percent Increase Over the Untreated Check (on a % dry matter basis) (basil 'Genovese'; [5]): 7 % check
Calcium, Percent Increase Over the Untreated Check (on a % dry matter basis) (basil 'Genovese'; [5]): −2 % check
Copper, Percent Increase Over the Untreated Check (on a % dry matter basis) (basil 'Genovese'; [5]): 8 % check
Iron, Percent Increase Over the Untreated Check (on a % dry matter basis) (basil 'Genovese'; [5]): 63 % check
Magnesium, Percent Increase Over the Untreated Check (on a % dry matter basis) (basil 'Genovese'; [5]): −8 % check
Manganese, Percent Increase Over the Untreated Check (on a % dry matter basis) (basil 'Genovese'; [5]): 26 % check
NDF, Percent Increase Over the Untreated Check (on a % dry matter basis) (basil 'Genovese'; [5]): 7 % check
Phosphorous, Percent Increase Over the Untreated Check (on a % dry matter basis) (basil 'Genovese'; [5]): 2 % check
Potassium, Percent Increase Over the Untreated Check (on a % dry matter basis) (basil 'Genovese'; [5]): −1 % check
Protein, Percent Increase Over the Untreated Check (on a % dry matter basis) (basil 'Genovese'; [5]): 6 % check
Sodium, Percent Increase Over the Untreated Check (on a % dry matter basis) (basil 'Genovese'; [5]): −25 % check
Soluble protein, Percent Increase Over the Untreated Check (on a % dry matter basis) (basil 'Genovese'; [5]): 50 % check
Zinc, Percent Increase Over the Untreated Check (on a % dry matter basis) (basil 'Genovese'; [5]): 28 % check
Yield Fresh weight (basil ‘Genovese’; [5]): 22.4 grams
Yield Fresh weight (basil ‘Genovese’; rates g ai/ha: chlropyrifos 3370, chlorothalonil 7900, paclobutrazol 9.7, mepiquat-chloride 37, Isoxadifen 16, Napthalic anhydride 527, + NIS 0.25 % v/v): 24.4 grams
Yield Fresh weight (kale ‘Red Russian’; [1]): 107.2 grams
Yield Fresh weight (kale ‘Red Russian’; [2]): 108.3 grams
